Laboratory results taken from ChEMBL document CHEMBL1152064, “Nucleosides and nucleotides. 128. (2S)-2-deoxy-2-C-methyl-5-iodouridine (SMIU) as a novel potent anti-herpes virus agent” (Bioorg Med Chem Lett, 1994).
Values after ≈ are worked out from the molar mass of the structure shown.

How the values were obtained:
[1] = tested on: NC-37; assay: Cytotoxic concentration required to inhibit NC-37 cells by 50%; format: functional; details: Homo sapiens
[2] = tested on: NC-37; assay: Concentration required to reduce HSV-1 (KOS strain) induced cytopathogenicity in NC-37 cells; format: functional, cell-based; details: Homo sapiens

SMILES	EC50 [2] [µg/mL]	CC50 [1] [µg/mL]
C[C@H]1[C@H](O)[C@@H](CO)O[C@H]1n1cc(I)c(=O)[nH]c1=O	0.14 (≈ 0.38 µM)	> 100
Nc1nc(=O)n([C@@H]2O[C@H](CO)[C@@H](O)[C@@H]2F)cc1I [FIACITABINE]	0.1 (≈ 0.269 µM)	63 (≈ 170 µM)
C[C@H]1[C@H](O)[C@@H](CO)O[C@H]1n1cc(I)c(N)nc1=O	4.8 (≈ 13.1 µM)	> 100
C[C@H]1[C@H](O)[C@@H](CO)O[C@H]1n1cc(Cl)c(N)nc1=O	> 100	> 100
C[C@H]1[C@H](O)[C@@H](CO)O[C@H]1n1cc(Cl)c(=O)[nH]c1=O	> 100	> 100
C[C@H]1[C@H](O)[C@@H](CO)O[C@H]1n1cc(F)c(=O)[nH]c1=O	> 100	> 100
O=c1[nH]c(=O)n([C@H]2C[C@H](O)[C@@H](CO)O2)cc1I [IDOXURIDINE]	> 80	80 (≈ 226 µM)
O=c1[nH]c(=O)n([C@@H]2O[C@H](CO)[C@@H](O)[C@@H]2F)cc1I [FIALURIDINE]	0.06 (≈ 0.161 µM)	6.7 (≈ 18 µM)

Second part, led by results:

EC50 [2] [µg/mL]	SMILES	CC50 [1] [µg/mL]
0.22 (≈ 0.849 µM)	C[C@H]1[C@H](O)[C@@H](CO)O[C@H]1n1cc(F)c(N)nc1=O	0.22 (≈ 0.849 µM)
11 (≈ 34.3 µM)	C[C@H]1[C@H](O)[C@@H](CO)O[C@H]1n1cc(Br)c(=O)[nH]c1=O	> 100
0.17 (≈ 0.755 µM)	Nc1nc2c(ncn2COCCO)c(=O)[nH]1 [ACYCLOVIR]	> 100
> 100	C[C@H]1[C@H](O)[C@@H](CO)O[C@H]1n1cc(Br)c(N)nc1=O	> 100
